Measurements as given in article PMC2628638, “Catalytic inhibition of topoisomerase II by a novel rationally designed ATP-competitive purine analogue” (BMC Chemical Biology, 2009).

Key:
topoisomerase II beta = biological target: T1, topoisomerase II beta (Homo sapiens, UniProt Q02880); test: Affinity precipitation with biotinylated purine analogue 2 from HL-60 nuclear extracts; format: binding; details: 1 μM biotinylated analogue 2; competitor in excess (10 μM), QAP 1 also at equimolar concentration
T1 construct: endogenous in cells; host or cells: HL-60 nuclear extract
T1 sequence (Q02880 whole entry): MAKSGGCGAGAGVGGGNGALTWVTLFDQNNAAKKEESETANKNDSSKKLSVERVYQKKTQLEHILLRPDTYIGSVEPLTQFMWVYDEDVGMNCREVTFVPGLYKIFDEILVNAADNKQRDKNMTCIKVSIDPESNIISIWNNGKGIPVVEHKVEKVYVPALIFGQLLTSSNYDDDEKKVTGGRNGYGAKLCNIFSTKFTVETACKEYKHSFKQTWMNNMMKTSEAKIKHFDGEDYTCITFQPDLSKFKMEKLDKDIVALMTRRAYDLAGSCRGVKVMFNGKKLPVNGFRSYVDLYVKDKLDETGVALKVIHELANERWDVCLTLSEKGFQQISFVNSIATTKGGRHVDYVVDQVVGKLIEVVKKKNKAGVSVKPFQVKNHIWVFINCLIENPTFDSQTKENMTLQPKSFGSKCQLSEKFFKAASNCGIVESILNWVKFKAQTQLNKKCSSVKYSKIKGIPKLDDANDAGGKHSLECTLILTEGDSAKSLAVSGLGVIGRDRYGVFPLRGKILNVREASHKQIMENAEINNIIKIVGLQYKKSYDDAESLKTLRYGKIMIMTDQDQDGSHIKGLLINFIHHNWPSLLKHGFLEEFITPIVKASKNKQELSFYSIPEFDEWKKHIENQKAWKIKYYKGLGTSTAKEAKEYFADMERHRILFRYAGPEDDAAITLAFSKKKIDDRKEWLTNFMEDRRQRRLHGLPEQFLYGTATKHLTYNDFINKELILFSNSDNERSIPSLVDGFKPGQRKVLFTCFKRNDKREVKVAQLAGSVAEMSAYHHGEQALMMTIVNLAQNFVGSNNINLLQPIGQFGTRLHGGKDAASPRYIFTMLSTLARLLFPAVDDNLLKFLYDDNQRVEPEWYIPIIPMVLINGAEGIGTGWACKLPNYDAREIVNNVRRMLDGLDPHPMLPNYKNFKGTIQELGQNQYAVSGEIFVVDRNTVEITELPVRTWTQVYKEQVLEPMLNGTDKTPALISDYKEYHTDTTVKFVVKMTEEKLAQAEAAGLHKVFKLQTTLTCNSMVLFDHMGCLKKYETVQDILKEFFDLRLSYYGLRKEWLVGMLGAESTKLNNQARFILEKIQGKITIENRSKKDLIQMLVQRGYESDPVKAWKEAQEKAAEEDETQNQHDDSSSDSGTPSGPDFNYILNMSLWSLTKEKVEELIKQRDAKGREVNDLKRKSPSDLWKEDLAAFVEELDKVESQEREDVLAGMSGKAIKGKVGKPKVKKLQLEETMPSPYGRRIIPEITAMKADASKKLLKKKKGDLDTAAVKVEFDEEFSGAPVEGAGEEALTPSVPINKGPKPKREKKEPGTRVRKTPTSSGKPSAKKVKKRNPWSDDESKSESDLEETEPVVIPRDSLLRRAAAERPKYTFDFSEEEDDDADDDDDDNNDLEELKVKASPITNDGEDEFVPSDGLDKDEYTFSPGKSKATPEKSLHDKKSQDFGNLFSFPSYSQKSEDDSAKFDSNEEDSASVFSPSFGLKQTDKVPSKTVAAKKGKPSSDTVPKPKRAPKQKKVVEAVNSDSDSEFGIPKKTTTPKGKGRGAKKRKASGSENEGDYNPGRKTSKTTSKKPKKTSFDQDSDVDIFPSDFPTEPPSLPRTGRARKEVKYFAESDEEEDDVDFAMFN
Protocol: Topoisomerase II α and β were affinity precipitated with biotinylated inhibitor as follows. Exponentially growing HL-60 cells were collected on ice and incubated with hypotonic buffer (10 mM HEPES pH 7.5, 1.5 mM MgCl2, 10 mM KCl, 0.5 mM DTT, 0.5 mM PMSF, 1× protease inhibitor cocktail (Complete Mini, Roche Diagnostics GmbH)) for 15 minutes, then 0.6% v/v NP-40 was added and cells were disrupted using a Dounce homogenizer. Lysates were transferred to 1.5 ml Protein LoBind Eppendorf tubes and nuclei were collected after centrifugation at 8000 rpm for 10 minutes and washed twice with hypotonic buffer. To extract and release chromatin associated topoisomerase II nuclei were incubated for 30 minutes in DNAse buffer (20 mM Tris HCl pH 7.5, 5 mM MgCl2, 1 mM CaCl2, 25 mM NaCl, 0.5 mM EDTA, 1% NP-40, 1 mM DTT, 1 × protease inhibitor cocktail, 0.1 mM PMSF) containing 40 U DNAse I (Roche Diagnostics GmbH) followed by addition of twice concentrated nuclear extraction buffer (20 mM HEPES pH 7.5, 3 mM MgCl2, 20 mM KCl, 50 mM β-glycerophosphate, 840 mM NaCl, 1 mM EDTA, 50 mM PNPP, 1 mM DTT, 1 mM PMSF) and rotation for 1 h in the coldroom. The soluble fraction was obtained following centrifugation at 13000 rpm for 15 minutes. 25 μg nuclear extract were used for the affinity precipitation. The salt concentration was adjusted to 150 mM with nuclear extraction buffer (without NaCl) and the sample volume was toped off to 200 μl with precipitation buffer (50 mM HEPES pH 7.4, 150 mM NaCl, 25 mM β-glycerophosphate, 25 mM NaF, 5 mM EGTA, 1 mM EDTA, 15 mM PPI, 1 mM PMSF). Compounds were preincubated for 30 minutes prior addition of biotinylated purine analogue 2 for 2 h. Streptavidin agarose beads (Novagen, 69203) were washed twice with PBS, blocked for 30 minutes with PBS containing 1% BSA, washed twice with PBS and finally with precipitation buffer. 40 μl equilibrated streptavidin agarose beads were added to the sample and incubation was continued for 1 h. Beads were pelleted by centrifugation at 7000 rpm for 5 minutes and washed thrice with precipitation buffer. During the last wash the beads were transferred to a new tube and the bound fraction was released by boiling for 5 minutes in Laemmli sample buffer. Topoisomerase II α and β were detected by Western blot as described below.

HL-60 cells [1] = test: Chromosome segregation assay (chromosome spreads); format: cell-based; details: 10 μM with 1 mM caffeine for 2 hours after 6 hours release
Protocol: HL-60 cells were treated overnight for 16 hours with 2 μg/ml aphidicolin (Sigma-Aldrich corporation, St. Louis, MO) and released by washing twice PBS and resuspending into fresh medium. After 6 hours release the cells were treated with 1 mM caffeine (Lancaster Synthesis, Heysham, Lancashire, UK) and with catalytic topoisomerase II inhibitor or vehicle for 2 hours. Cells were washed once with PBS and incubated with 56 mM KCl hypotonic solution for 30 minutes. Cells were pelleted and carefully resuspended in Carnoy's fixative. Cells were pelleted as above, supernatant was removed and cells were resuspended again in 2 ml fixative. Chromosome spreads were prepared by dropping 50 μl cell suspension onto microscopy slides. The slides were allowed to dry and then stained for 10 seconds in Hoechst 33342 dye (Molecular Probes, Eugene, Oregon, prepared 1:1000 in PBS from 10 mg/ml stock). After drying, mounting media (Vectashield®, Vector Laboratories, Burlingame, CA) and a cover slip were added. Samples were observed using an immersion oil lens (100 ×, Nikon, Plan Apo VC) by fluorescence microscopy (Nikon Eclipse, E600) in the DAPI channel. Images were acquired using analySIS® software (Soft Imaging System GmbH, Münster, Germany). Representative images were converted to grayscale, inverted and contrast adjusted with Adobe Photoshop. Mitotic cells were categorized as described.

HL-60 cells [2] = test: Proliferation assay over 72 hours; format: cell-based; details: Homo sapiens, read-out: half-maximal growth inhibitory concentration (GI50)
[3] = tested on: HCC1937 BRCA1 mutant and HCC1937 BRCA1 reconstituted cells; test: Clonogenic growth assay (WST-1, colony counting); format: cell-based
Protocol: HCC1937 BRCA1 mutant and HCC1937 BRCA1 reconstituted breast ductal carcinoma cells were cultured in RPMI-1640 medium supplemented with 10% fetal calf serum, 2 mM L-glutamine, 1 mM sodium pyruvate, 4.5 g/l glucose and 1% (v/v) penicillin/streptomycin. Status of BRCA1 was corroborated by immunoprecipitation using 50 μg nuclear extracts and 1 μg mouse monoclonal antibody MS110 (ab16780, Abcam Inc., Cambridge, MA), which is directed towards the amino-terminus of the protein. Blots were probed with BRCA1 carboxy-terminal specific mouse monoclonal antibody D9 (sc-6954, Santa Cruz Biotechnologies, Santa Cruz, CA) and, following stripping, re-probed with antibody MS110. For assays, 5000 cells in 3 ml medium were seeded per well of 6 well plates in duplicates. The day after, vehicle (DMSO) or compounds were added. After one week medium was exchanged and vehicle or compounds were re-added for an additional two days. To assess proliferation the medium in each well was replaced with 1 ml medium containing 100 μl WST-1 reagent and incubation for 20 minutes at 37°C. Of each sample 110 μl supernatant were transferred into a 96 well plate and the OD was read at 450 nm (filter at 630 nm) on a SpectraMax Plus microtiter plate reader using SoftMax Pro software (Molecular Devices). For background correction, the blank value consisted of 100 μl medium containing 10 μl WST-1. Thereafter, colonies were stained by removing medium, washing cells once with PBS and incubation with 1 ml crystal violet solution for 30 minutes at room temperature. Cells were washed twice with PBS and colonies were counted using an Artec Counter (Model 880, Artec, Dyntatech Laboratories Inc.) with diameter cut-off set to 0.2 mm. Data were expressed as growth or colony numbers relative to vehicle control treatments (100%).

## CCc1nc2nc(Nc3ccc4nc(OCCN5CCOCC5)ccc4c3)nc(NC(C)(C)C)c2[nH]1 [QAP 1]
Topoisomerase II beta
  competition of the interaction of biotinylated purine analogue 2 with topoisomerase II beta: abolished
HL-60 cells [1]
  chromosome segregation at mitosis: mitosis was also severely perturbed during anaphase
HL-60 cells [2]
  GI50: 8 µM
[3]; 5 μM, 9 days
  colony formation of BRCA1 mutant cells: striking suppression
[3]; continuous treatment for 9 days, WST-1 and colony numbers
  sensitivity of BRCA1 mutant versus BRCA1 reconstituted HCC1937 cells: differential antiproliferative effect
